Structures can show the parent of a compound that is named as a salt.
Tests used:
Experiment in all cases: Field trial with maize, herbicidal action
Format in all cases: in vivo
Galium aparine = conditions: application 3- to 4-leaf stage, scoring 24 days after application
Procedure: (§1) Transgenic maize plants with a resistance to one or more herbicides (A) together with typical weed plants were grown in the open on 2×5 m plots under natural field conditions; alternatively, weed infestation occurred naturally when the maize plants were grown.
(§2) […] The damage to, and the development of, all aerial parts of the plants was recorded. Scoring was done on the basis of a percentage sale (100% action=all plants destroyed; 50% action=50% of the plants and green parts of the plants destroyed; 0% action=no recognizable effect=like control plot. The mean of the score values of in each case 4 plots was calculated.

Euphorbia heterophylla = conditions: for Herbicidal action (%) against Euphorbia heterophylla: application 6-leaf stage, scoring 44 days after application; for Herbicidal action (%) against EPHHL: application 4-leaf stage, scoring 6 weeks after application
Procedure: as §1, §2

Fagopyrum esculentum = conditions: for Herbicidal action (%) against Fagopyrum esculentum: application 3- to 4-leaf stage, scoring 24 days after application; for Herbicidal action (%) against Fagopyron esculentum: application 2- to 4-leaf stage, scoring 26 days after application
Procedure: as §1, §2

Cassia obtusifolia = conditions: 400 g of a.s./ha; application 3-leaf stage; scoring 21 days after application
Procedure: as §1, §2

Panicum dichotomiflorum = conditions: application 5-6-leaf stage, scoring 11 days after application
Procedure: as §1, §2

Lolium multiflorum = conditions: application 2- to 4-leaf stage, scoring 26 days after application
Procedure: as §1, §2

Echinochloa crus-galli = system: Echinochloa crus-galli
Procedure: as §1, §2

Portulaca oleracea = system: Portulaca oleracea
Procedure: as §1, §2

AGRRE = conditions: application 2-4-leaf stage, scoring 3 weeks after application
Procedure: as §1, §2

SETVI = conditions: application 2-4-leaf stage, scoring 3 weeks after application
Procedure: as §1, §2

AMARE = conditions: application 2-4-leaf stage, scoring 3 weeks after application
Procedure: as §1, §2

Digitaria sanguinalis = conditions: application 5-6-leaf stage, scoring 11 days after application
Procedure: as §1, §2

Brachiaria plantaginea = conditions: application 2-leaf stage, scoring 28 days after application
Procedure: as §1
(§3) 2, 4, 6 and 8 weeks after the application, the herbicidal activity of the active substances or active substance mixtures was scored visually with reference to the treated plots in comparison to untreated control plots. The damage to, and the development of, all aerial parts of the plants was recorded. Scoring was done on the basis of a percentage sale (100% action=all plants destroyed; 50% action=50% of the plants and green parts of the plants destroyed; 0% action=no recognizable effect=like control plot. The mean of the score values of in each case 4 plots was calculated.

Commelina benghalensis = conditions: application 3-leaf stage, scoring 42 days after application
Procedure: as §1, §3

Sorghum bicolor = conditions: application 4-leaf stage, scoring 28 days after post-emergence application
Procedure: as §1, §3

Convolvulus arvensis = conditions: application 3- to 4-leaf stage, scoring 28 days after application
Procedure: as §1, §3

Avena fatua = conditions: application 2- to 4-leaf stage, scoring 28 days after application
Procedure: as §1, §3

Sinapis arvensis = conditions: application 4- to 5-leaf stage, scoring 28 days after application
Procedure: as §1, §3

Sorghum halepense = conditions: application 4-leaf stage, scoring 28 days after application
Procedure: as §1, §3

SMILES: CP(=O)(O)CCC(N)C(=O)O (stereo not drawn) [(A1.2), glufosinate-monoammonium salt]
- Herbicidal action (%) against Galium aparine (Galium aparine; 125 g of a.s./ha): 30%
- Herbicidal action (%) against Galium aparine (Galium aparine; 250 g of a.s./ha): 45%
- Herbicidal action (%) against Galium aparine (Galium aparine; 500 g of a.s./ha): 65%
- Herbicidal action (%) against Euphorbia heterophylla (Euphorbia heterophylla; 100 g of a.s./ha): 37%
- Herbicidal action (%) against Euphorbia heterophylla (Euphorbia heterophylla; 200 g of a.s./ha): 50%
- Herbicidal action (%) against EPHHL (Euphorbia heterophylla; 300 g of a.s./ha): 45%
- Herbicidal action (%) against Euphorbia heterophylla (Euphorbia heterophylla; 400 g of a.s./ha): 60%
- Herbicidal action (%) against EPHHL (Euphorbia heterophylla; 600 g of a.s./ha): 55%
- Herbicidal action (%) against Fagopyrum esculentum (Fagopyrum esculentum; 125 g of a.s./ha): 10%
- Herbicidal action (%) against Fagopyron esculentum (Fagopyrum esculentum; 200 g of a.s./ha): 10%
- Herbicidal action (%) against Fagopyrum esculentum (Fagopyrum esculentum; 250 g of a.s./ha): 20%
- Herbicidal action (%) against Fagopyron esculentum (Fagopyrum esculentum; 330 g of a.s./ha): 20%
- Herbicidal action (%) against Fagopyron esculentum (Fagopyrum esculentum; 500 g of a.s./ha): 55%
- Herbicidal action (%) against Fagopyrum esculentum (Fagopyrum esculentum; 500 g of a.s./ha): 55%
- Herbicidal action (%) against Cassia obtusifolia (Cassia obtusifolia): 60%
- Herbicidal action (%) against Panicum dichotomiflorum (Panicum dichotomiflorum; 200 g of a.s./ha): 8%
- Herbicidal action (%) against Panicum dichotomiflorum (Panicum dichotomiflorum; 400 g of a.s./ha): 50%
- Herbicidal action (%) against Panicum dichotomiflorum (Panicum dichotomiflorum; 600 g of a.s./ha): 92%
- Herbicidal action (%) against Lolium multiflorum (Lolium multiflorum; 200 g of a.s./ha): 0%
- Herbicidal action (%) against Lolium multiflorum (Lolium multiflorum; 330 g of a.s./ha): 15%
- Herbicidal action (%) against Lolium multiflorum (Lolium multiflorum; 500 g of a.s./ha): 78%
- Herbicidal action (%) against Echinochloa crus-galli (Echinochloa crus-galli; 125 g of a.s./ha, application 3- to 4-leaf stage, scoring 42 days after application): 45%
- Herbicidal action (%) against Echinochloa crus-galli (Echinochloa crus-galli; 125 g of a.s./ha, application 3-leaf stage, scoring 28 days after application): 25%
- Herbicidal action (%) against Echinochloa crus-galli (Echinochloa crus-galli; 200 g of a.s./ha, application 3-leaf stage, scoring 21 days after application): 35%
- Herbicidal action (%) against Echinochloa crus-galli (Echinochloa crus-galli; 250 g of a.s./ha, application 3- to 4-leaf stage, scoring 42 days after application): 65%
- Herbicidal action (%) against Echinochloa crus-galli (Echinochloa crus-galli; 250 g of a.s./ha, application 3-leaf stage, scoring 28 days after application): 45%
- Herbicidal action (%) against Echinochloa crus-galli (Echinochloa crus-galli; 400 g of a.s./ha, application 3-leaf stage, scoring 21 days after application): 68%
- Herbicidal action (%) against Echinochloa crus-galli (Echinochloa crus-galli; 500 g of a.s./ha, application 3- to 4-leaf stage, scoring 42 days after application): 78%
- Herbicidal action (%) against Echinochloa crus-galli (Echinochloa crus-galli; 500 g of a.s./ha, application 3-leaf stage, scoring 28 days after application): 74%
- Herbicidal action (%) against Portulaca oleracea (Portulaca oleracea; 250 g of a.s./ha, application 6-leaf stage, scoring 26 days after application): 35%
- Herbicidal action (%) against Portulaca oleracea (Portulaca oleracea; 300 g of a.s./ha, application 2- to 4-leaf stage, scoring 28 days after application): 43%
- Herbicidal action (%) against Portulaca oleracea (Portulaca oleracea; 450 g of a.s./ha, application 2- to 4-leaf stage, scoring 28 days after application): 50%
- Herbicidal action (%) against Portulaca oleracea (Portulaca oleracea; 500 g of a.s./ha, application 6-leaf stage, scoring 26 days after application): 60%
- Herbicidal action (%) against AGRRE (AGRRE; 200 g of a.s./ha): 0%
- Herbicidal action (%) against AGRRE (AGRRE; 300 g of a.s./ha): 0%
- Herbicidal action (%) against AGRRE (AGRRE; 400 g of a.s./ha): 11%
- Herbicidal action (%) against AGRRE (AGRRE; 600 g of a.s./ha): 15%
- Herbicidal action (%) against AGRRE (AGRRE; 1000 g of a.s./ha): 74%
- Herbicidal action (%) against SETVI (SETVI; 200 g of a.s./ha): 72%
- Herbicidal action (%) against SETVI (SETVI; 300 g of a.s./ha): 72%
- Herbicidal action (%) against SETVI (SETVI; 400 g of a.s./ha): 69%
- Herbicidal action (%) against SETVI (SETVI; 600 g of a.s./ha): 69%
- Herbicidal action (%) against SETVI (SETVI; 1000 g of a.s./ha): 74%
- Herbicidal action (%) against AMARE (AMARE; 200 g of a.s./ha): 65%
- Herbicidal action (%) against AMARE (AMARE; 300 g of a.s./ha): 84%
- Herbicidal action (%) against AMARE (AMARE; 400 g of a.s./ha): 82%
- Herbicidal action (%) against AMARE (AMARE; 600 g of a.s./ha): 87%
- Herbicidal action (%) against AMARE (AMARE; 1000 g of a.s./ha): 85%
- Herbicidal action (%) against Digitaria sanguinalis (Digitaria sanguinalis; 200 g of a.s./ha): 0%
- Herbicidal action (%) against Digitaria sanguinalis (Digitaria sanguinalis; 400 g of a.s./ha): 15%
- Herbicidal action (%) against Digitaria sanguinalis (Digitaria sanguinalis; 600 g of a.s./ha): 30%
- Herbicidal action (%) against Brachiaria plantaginea (Brachiaria plantaginea; 150 g of a.s./ha): 5%
- Herbicidal action (%) against Brachiaria plantaginea (Brachiaria plantaginea; 300 g of a.s./ha): 45%
- Herbicidal action (%) against Brachiaria plantaginea (Brachiaria plantaginea; 600 g of a.s./ha): 70%
- Herbicidal action (%) against Commelina benghalensis (Commelina benghalensis; 100 g of a.s./ha): 43%
- Herbicidal action (%) against Commelina benghalensis (Commelina benghalensis; 200 g of a.s./ha): 60.0%
- Herbicidal action (%) against Commelina benghalensis (Commelina benghalensis; 300 g of a.s./ha): 63%
- Herbicidal action (%) against Commelina benghalensis (Commelina benghalensis; 600 g of a.s./ha): 82%
- Herbicidal action (%) against Sorghum bicolor (Sorghum bicolor; 125 g of a.s./ha): 30%
- Herbicidal action (%) against Sorghum bicolor (Sorghum bicolor; 250 g of a.s./ha): 50%
- Herbicidal action (%) against Sorghum bicolor (Sorghum bicolor; 500 g of a.s./ha): 85%
- Herbicidal action (%) against Convolvulus arvensis (Convolvulus arvensis; 200 g of a.s./ha): 0%
- Herbicidal action (%) against Convolvulus arvensis (Convolvulus arvensis; 400 g of a.s./ha): 20%
- Herbicidal action (%) against Avena fatua (Avena fatua; 300 g of a.s./ha): 48%
- Herbicidal action (%) against Avena fatua (Avena fatua; 450 g of a.s./ha): 50%
- Herbicidal action (%) against Sinapis arvensis (Sinapis arvensis; 230 g of a.s./ha): 45%
- Herbicidal action (%) against Sinapis arvensis (Sinapis arvensis; 350 g of a.s./ha): 75%
- Herbicidal action (%) against Sorghum halepense (Sorghum halepense; 300 g of a.s./ha): 15%
- Herbicidal action (%) against Sorghum halepense (Sorghum halepense; 500 g of a.s./ha): 53%

From patent US8772199B2, “Herbicidal compositions for tolerant or resistant maize crops” (Bayer Intellectual Property GmbH, priority 1998, dated 2014)
